Literature values, collected in PMC8354143, “Cy3-RgIA-5727 Labels and Inhibits α9-Containing nAChRs of Cochlear Hair Cells” (Frontiers in Cellular Neuroscience, 2021).

How the values were obtained:
[1] = system: voltage-gated calcium channels in the efferent terminals
[2] = system: α9-containing nAChRs

Row | Substance | time course of block of voltage-gated calcium channels [1] | antagonism of α9-containing nAChRs [2]
1 | ω-conotoxin GVIA | 15 to 20 min | –
2 | α-Conotoxin-RgIA | – | specific and potent antagonist of α9-containing nAChRs
